Measured values as given in doi:10.1101/2025.07.20.665728 (bioRxiv, 2025).

Assays:
Type in all cases: cell-based
[1] = tested on: SKW-3 cells expressing AF-7 (TRAV1-2/TRBV6-1) TCR; test: MAIT cell activation assay, SKW-3 AF-7 TCR co-cultured with C1R.MR1; settings: SKW-3 AF-7, ligand alone
Method: (§1) Next, we explored whether RF catabolites could activate SKW-3 cells expressing two different MAIT TCRs. Distinct responses of T cells expressing TCRs with varying TRBV chain usage reinforces the role of Vβ in modulating MAIT responses to various ligands ([Chancellor et al., 2023]; [Gherardin et al., 2016]; [Seneviratna et al., 2022]).The surface expression of CD69 was measured as a marker for activation of cells expressing the AF-7 (TRAV1-2/TRBV6-1) or MBV28 (TRAV1-2/TRBV28) TCRs after co-culture with C1R.MR1 cells and the ligands.
(§2) C1R.MR1 cells (1 x 10^5) were initially stained with CTV for 15 minutes and then incubated with RF catabolites for 20 h. […] Cells were subsequently stained with PE-Cy7-conjugated anti-CD69 (BD; 1:100) and PE-labelled anti-MR1 (26.5 clone; BD; 1:100), before analysis on LSRFortessa (BD Biosciences) flow cytometer. Activation of SKW-3-MAIT cells was reflected by the cell-surface CD69 expression.

[2] = tested on: SKW-3 cells expressing MBV28 (TRAV1-2/TRBV28) TCR; test: MAIT cell activation assay, SKW-3 MBV28 TCR co-cultured with C1R.MR1; settings: SKW-3 MBV28, ligand alone
Method: as §1, §2

MAIT cells in human PBMC [3] = test: MAIT cell proliferation in CTV-labeled PBMCs; settings: day 7, 5-OP-RU 10 μM, RF ligands 100 μM
MAIT cells in human PBMC [4] = test: Primary MAIT activation (CD69) in PBMCs; settings: 16 h, ligand alone
C1R.MR1^R9H cells = test: Cell surface MR1 R9H quantification, C1R.MR1^R9H
Text: We then tested the effect of the RF catabolites on the expression of two mutant versions of MR1 termed MR1^R9H ([Howson et al., 2020]) and MR1^K43A ([Reantragoon et al., 2013]). First, we tested the MR1^R9H mutant ([Howson et al., 2020]) which represents a rare, natural human polymorph. […] When C1R. […] Next, we tested sought to understand how the previously characterised Lys43A mutation affects ligand binding. […] While this is in line with the ability of these ligands to bind MR1, the reason for MR1^K43A cell surface accumulation is less clear. The most likely explanation is that these ligands bind ER-resident MR1^K43A, in line with our data using wild-type MR1; however, because the K43A mutation results in spontaneous MR1 surface egress, the presence of these stabilising ligands promotes enhanced trafficking and/or retention at the cell surface. We cannot rule out however that the ligands may also bind directly to surface MR1^K43A and slow down the recycling from cell surface.
The level of MR1 expressed on the cell surface was measured after the exposure to the investigated ligands as previously described ([Awad et al., 2020a]; [Wang et al., 2022a]). […] The PE fluorescence intensity reflects the surface MR1 level. The data was acquired with an LSRFortessa X-20 (BD Biosciences) and Diva software (BD Biosciences) and analyzed using FlowJo software (BD Biosciences).

C1R.MR1 cells [5] = test: Endo H treatment and western blot of intracellular MR1; settings: C1R.MR1, 16 h; RF and catabolites 100 μM, Ac-6-FP 10 μM
Method: The downregulation of MR1 on the cell surface by the RF catabolites could be due to the depletion of the intracellular ER-resident MR1 pool, or by retention of MR1 in the ER, as shown for the DB28 ligand ([Salio et al., 2020]). To investigate this, C1R.MR1 cells were treated for 16 h with 100 μM of RF or RF catabolites, conditions which induce MR1 downregulation (Fig. 3A). Cells were lysed, and treated with endoglycosidase (Endo) H, to distinguish molecules that remain within the ER from those that have trafficked to the cell surface ([McWilliam et al., 2016]), then MR1 levels were assessed by immunoblotting (Fig. 3A).
Figure 3. […] S, Endo H–susceptible MR1; R, Endo H–resistant MR1. The Endo H–susceptible MR1 and Endo H–resistant MR1 fractions were quantified in at least two independent experiments. (b) Intracellular total MR1 level was also measured in C1R.MR1 cells by flow cytometry after treating the cells with the indicated ligands (100 μM) for 16h followed by permeabilization and staining with anti-MR1-PE (8F2.F9). Shown are the overlay histograms (top) and a bar chart depicting the geometric mean fluorescence intensity (gMFI) fold change of intracellular MR1 level (bottom) from three independent experiments performed in duplicates, with standard error (SEM) represented by the error bars. […]

C1R.MR1 cells [6] = test: Intracellular total folded MR1 by flow cytometry (8F2.F9); settings: C1R.MR1, 100 μM, 16 h

| SMILES | CD69 surface expression (activation) [1] | CD69 surface expression (activation) [2] | MAIT cell proliferation (MAIT cells in human PBMC [3]) | CD69 expression on gated MAIT cells (MAIT cells in human PBMC [4]) | MR1^R9H surface level (C1R.MR1^R9H cells) | Endo H-resistant MR1 (C1R.MR1 cells [5]) | total level of folded MR1 (intracellular staining with 8F2.F9) (C1R.MR1 cells [6]) |
| --- | --- | --- | --- | --- | --- | --- | --- |
| CC(=O)C=Nc1c(NC[C@H](O)[C@H](O)[C@H](O)CO)[nH]c(=O)[nH]c1=O [5-OP-RU, 5-(2-oxopropylideneamino)-6-D-ribitylaminouracil, reference compound] | induced strong activation | induced strong activation | significantly proliferated | induced robust CD69 upregulation | – | – | – |
| Nc1nc2ncc(C=O)nc2c(=O)[nH]1 [6-FP, 6-formylpterin, reference compound] | moderately reduced basal CD69 levels | moderately reduced basal CD69 levels | – | – | – | – | – |
| CC(=O)Nc1nc2ncc(C=O)nc2c(=O)[nH]1 [Ac-6-FP, acetyl-6-FP, reference compound] | – | – | – | – | significantly increased | increase in MR1 of a higher molecular weight | significantly increased |
